Test results reported in ChEMBL document CHEMBL4342439, “Targeting Stimulator of Interferon Genes (STING): A Medicinal Chemistry Perspective” (J Med Chem, 2020).

Experiments:
[1] = biological target: T1, Stimulator of interferon genes protein (Homo sapiens, UniProt Q86WV6); test: Inhibition of STING in human THP1 cells in presence of digitonin by IFN reporter gene assay; assay type: cell-based
[2] = biological target: T2, Stimulator of interferon genes protein (Mus musculus, UniProt Q3TBT3); test: Binding affinity to mouse STING by ITC assay
T2 sequence (Q3TBT3 whole entry): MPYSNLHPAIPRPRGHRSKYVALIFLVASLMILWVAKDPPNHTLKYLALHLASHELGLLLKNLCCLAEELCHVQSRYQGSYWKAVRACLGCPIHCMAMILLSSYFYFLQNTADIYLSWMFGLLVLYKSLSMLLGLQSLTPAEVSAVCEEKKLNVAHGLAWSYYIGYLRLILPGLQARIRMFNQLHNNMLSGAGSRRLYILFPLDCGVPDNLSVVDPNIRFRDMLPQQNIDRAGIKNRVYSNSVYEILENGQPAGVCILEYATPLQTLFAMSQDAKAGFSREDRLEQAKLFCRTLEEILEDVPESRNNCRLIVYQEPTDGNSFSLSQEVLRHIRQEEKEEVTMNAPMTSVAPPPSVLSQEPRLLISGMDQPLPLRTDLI

[3] = biological target: T1, Stimulator of interferon genes protein; test: Inhibition of STING in human THP1 cells by IFN reporter gene assay; assay type: cell-based
[4] = biological target: Stimulator of interferon genes protein (Homo sapiens, UniProt Q86WV6, G230A/R293Q/R71H); test: Displacement of [3H]-cGAMP from full length STING HAQ mutant in human THP1 cells by filtration binding assay; assay type: cell-based
Chain of Stimulator of interferon genes protein (Homo sapiens, UniProt Q86WV6, G230A/R293Q/R71H) (Q86WV6 whole entry R71H/G230A/R293Q): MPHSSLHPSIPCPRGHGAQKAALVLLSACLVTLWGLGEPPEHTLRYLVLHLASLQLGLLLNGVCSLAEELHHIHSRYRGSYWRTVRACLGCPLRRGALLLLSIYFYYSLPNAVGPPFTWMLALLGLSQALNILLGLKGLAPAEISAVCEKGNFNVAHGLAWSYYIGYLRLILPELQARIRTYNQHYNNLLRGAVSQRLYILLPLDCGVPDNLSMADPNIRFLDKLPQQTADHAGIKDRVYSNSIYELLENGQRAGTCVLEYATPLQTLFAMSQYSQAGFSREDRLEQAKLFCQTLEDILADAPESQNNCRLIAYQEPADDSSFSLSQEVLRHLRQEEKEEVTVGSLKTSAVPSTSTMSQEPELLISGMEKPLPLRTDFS

[5] = Binding affinity to human STING H232 mutant by ITC assay
[6] = biological target: T1, Stimulator of interferon genes protein; test: Inhibition of wild type human STING by SPA assay
[7] = biological target: T1, Stimulator of interferon genes protein; test: Inhibition of STING in human THP1 cells in presence of PFO by IFN reporter gene assay; assay type: cell-based
[8] = biological target: T1, Stimulator of interferon genes protein; test: Displacement of [3H]-cGAMP from wild type human STING by filtration binding assay
[9] = biological target: T2, Stimulator of interferon genes protein; test: Displacement of [3H]-cGAMP from mouse STING by filtration binding assay
[10] = biological target: T1, Stimulator of interferon genes protein; test: Inhibition of STING in human THP1 cells by R232 IRF-luciferase reporter gene assay; assay type: cell-based
[11] = test system: Stimulator of interferon genes protein (Homo sapiens), Q86WV6 [R71H,G230A,R293Q]; test: Effect on full length STING HAQ mutant in human THP1 cells at 10 uM relative to 2',3- cGAMP; assay type: cell-based
Chain of Stimulator of interferon genes protein (Homo sapiens), Q86WV6 [R71H,G230A,R293Q] (Q86WV6 whole entry R71H/G230A/R293Q): as above

[12] = biological target: T1, Stimulator of interferon genes protein; test: Inhibition of STING in human THP1 cells; assay type: cell-based
[13] = Inhibition of human STING H232 mutant by SPA assay

T1 sequence (Q86WV6 whole entry): as the sequence (Q86WV6 whole entry R71H/G230A/R293Q) above, with H71R, A230G, Q293R counted along it

Nc1nc2c(ncn2[C@@H]2O[C@@]34CO[C@@H]2[C@@H]3O[P@](=O)(S)OC[C@@]23CO[C@@H]([C@H](n5cnc6c(N)ncnc65)O2)[C@@H]3O[P@](=O)(S)OC4)c(=O)[nH]1
EC50 [1]: 19300 nM

COc1c(O)cc2oc3cc(O)c(CC=C(C)C)c(O)c3c(=O)c2c1CC=C(C)C [MANGOSTIN]
Kd [2]: 137000 nM

Nc1ncnc2c1ncn2[C@@H]1O[C@@H]2CO[P@@](=O)(S)O[C@@H]3[C@H](F)[C@@H](CO[P@@](=O)(S)O[C@H]2[C@H]1F)O[C@H]3n1cnc2c(N)ncnc21
EC50 [3]: 4500 nM | EC50 [1]: 190 nM

COc1cc2cc(C(=O)C[C@H](C)C(=O)O)sc2cc1OC
EC50 [4]: 2740 nM

NC[C@H]1[C@H]2OP(=O)(O)OC[C@H]3O[C@@H](n4cnc5c(N)ncnc54)[C@H](O)[C@@H]3OP(=O)(O)OC[C@H]1O[C@H]2n1cnc2c(=O)[nH]c(N)nc21
EC50 [4]: 21.5 nM

COc1cc2cc(C(=O)CC(C(=O)O)C(C)C)sc2cc1OC (configuration not stated)
EC50 [4]: 9590 nM

COc1cc2sc(C(=O)[C@@H]3C[C@@H]3C(=O)O)cc2c(F)c1OC
EC50 [4]: 599 nM

COc1cc2cc(C(=O)CCC(=O)O)sc2cc1OC
EC50 [4]: 1720 nM

Nc1nc2c(ncn2[C@@H]2O[C@@H]3CO[P@@](=O)(S)O[C@H]4[C@H]5OC[C@]4(CO[P@@](=O)(S)O[C@H]3[C@H]2O)O[C@H]5n2cnc3c(N)ncnc32)c(=O)[nH]1
EC50 [1]: 5800 nM

Nc1nc2c(ncn2[C@@H]2O[C@@H]3COP(=O)(O)O[C@@H]4[C@H](O)[C@@H](COP(=O)(O)O[C@@H]2[C@@H]3O)O[C@H]4n2cnc3c(N)ncnc32)c(=O)[nH]1
Kd [5]: 2500 nM

Nc1nc2c(ncn2[C@@H]2O[C@@H]3COP(=O)(O)O[C@H]4[C@@H](O)[C@H](n5cnc6c(N)nc(F)nc65)O[C@@H]4COP(=O)(O)O[C@@H]2[C@@H]3O)c(=O)[nH]1
EC50 [4]: 24.6 nM

COc1cc2sc(C(=O)C[C@H](C)C(=O)O)cc2c(F)c1OC
EC50 [4]: 1380 nM

CCn1nc(C)cc1C(=O)Nc1nc2cc(C(N)=O)ccc2n1CCCCn1c(NC(=O)c2cc(C)nn2CC)nc2cc(C(N)=O)ccc21
IC50 [6]: 20 nM

BP1(=O)OC[C@H]2O[C@@H](n3cnc4c(=O)[nH]c(N)nc43)[C@H](OP(=O)(O)OC[C@H]3O[C@@H](n4cnc5c(N)ncnc54)[C@H](O)[C@@H]3O1)[C@@H]2O (some centres not stated)
EC50 [3]: < 30000 nM | EC50 [7]: < 100 nM

Nc1ncnc2c1ncn2[C@@H]1O[C@@H]2CO[P@@](=O)(S)O[C@@H]3[C@H](F)[C@@H](CO[P@@](=O)(S)O[C@H]2[C@H]1O)O[C@H]3n1cnc2c(N)ncnc21
EC50 [3]: 11200 nM | EC50 [1]: 399 nM

COc1cc2sc(C(=O)[C@H]3C[C@H]3C(=O)O)cc2c(F)c1OC
EC50 [4]: 17800 nM

CCn1nc(C)cc1C(=O)/N=c1\[nH]c2cc(C(N)=O)ccc2n1C[C@@H](O)c1ccccc1
IC50 [6]: 14000 nM

COc1c(Cl)ccc2c(=O)c3ccc(C(C)(C)C)cc3n(CC(=O)O)c12
IC50 [8]: < 20000 nM | IC50 [9]: < 20000 nM | IC50 [10]: > 50000 nM

COc1cc2cc(C(=O)C[C@H](C)C(=O)O)sc2cc1Br
EC50 [4]: 894 nM

COc1cc2sc(C(=O)C[C@H](C)C(=O)O)cc2c2nc(C)oc12
EC50 [4]: 531 nM

C=C1[C@@H](n2cnc3c(N)ncnc32)[C@H](F)[C@@H]2O[P@@](O)(=S)OC[C@H]3O[C@@H](n4cnc5c(=O)[nH]c(N)nc54)[C@H](OP(O)(=S)OC[C@@H]12)[C@@H]3F (some centres not stated)
EC50 [3]: 740 nM | Activity [11]: 430%

Nc1ncnc2c1ncn2[C@@H]1O[C@@H]2CNC(=O)N[C@H]3[C@@H](O)[C@H](n4cnc5c(N)ncnc54)O[C@@H]3CNC(=O)N[C@H]2[C@H]1O
EC50 [12]: 25400 nM

BP1(=O)OC[C@H]2O[C@@H](n3cnc4c(N)ncnc43)[C@H](O)[C@@H]2OP(=O)(O)OC[C@H]2O[C@@H](n3cnc4c(=O)[nH]c(N)nc43)[C@H](O1)[C@@H]2O (some centres not stated)
EC50 [3]: < 30000 nM | EC50 [7]: < 100 nM

CCC[C@H]1[C@H]2OP(=O)(O)OC[C@H]3O[C@@H](n4cnc5c(N)ncnc54)[C@H](O)[C@@H]3OP(=O)(O)OC[C@H]1O[C@H]2n1cnc2c(=O)[nH]c(N)nc21
EC50 [3]: ≤ 100 nM | EC50 [7]: ≤ 30000 nM

COc1cc2cc(C(=O)CCC(=O)OC(C)(C)C)sc2cc1OC
EC50 [4]: 5990 nM

COc1cc2cc(C(=O)CC(C)C(=O)O)sc2cc1OC (configuration not stated)
EC50 [4]: 5550 nM

Nc1ncnc2c1ncn2[C@@H]1O[C@@H]2CO[P@@](=O)(S)O[C@@H]3C[C@@H](CO[P@@](=O)(S)O[C@H]2[C@H]1F)O[C@H]3n1cnc2c(N)ncnc21
EC50 [3]: 10200 nM

COc1cc2sc(C(=O)C[C@H](C)C(=O)O)cc2cc1Br
EC50 [4]: 2640 nM

C#C[C@@H]1O[C@@H]2COP(=O)(S)O[C@H]3[C@@H](F)[C@H](n4cnc5c(N)ncnc54)O[C@@H]3COP(=O)(S)O[C@@H]1[C@@H]2O (some centres not stated)
EC50 [4]: < 1 nM

Nc1nc2c(ncn2[C@@H]2O[C@@H]3COP(=O)(O)O[C@H]4[C@@H](O)[C@H](n5cnc6c(N)nc(F)nc65)O[C@@H]4COP(=O)(O)O[C@@H]2[C@@H]3O)c(=S)[nH]1
EC50 [4]: 1.7 nM

Nc1ncnc2c1ncn2[C@@H]1O[C@@H]2CNC(=S)N[C@H]3[C@@H](O)[C@H](n4cnc5c(N)ncnc54)O[C@@H]3CNC(=S)N[C@H]2[C@H]1O
EC50 [12]: 22200 nM

Nc1nc2c(nnn2[C@@H]2O[C@@H]3COP(=O)(O)O[C@H]4[C@@H](O)[C@H](n5cnc6c(N)ncnc65)O[C@@H]4COP(=O)(O)O[C@@H]2[C@@H]3O)c(=O)[nH]1
EC50 [4]: < 1 nM

Nc1nc2c(ncn2[C@@H]2S[C@@H]3COP(=O)(O)O[C@H]4[C@@H](O)[C@H](n5cnc6c(N)ncnc65)O[C@@H]4COP(=O)(O)O[C@@H]2[C@@H]3O)c(=O)[nH]1
EC50 [4]: 1.2 nM

CCn1nc(C)cc1C(=O)/N=c1\[nH]c2cc(C(N)=O)cc(OC)c2n1C/C=C/Cn1/c(=N/C(=O)c2cc(C)nn2CC)[nH]c2cc(C(N)=O)cc(OCCCN3CCOCC3)c21
EC50 [13]: 200 nM
